In patent US5776943A, “Rapamycin metabolites” (American Home Products Corporation, priority 1991, dated 1998):
Read-outs that look alike come from different tables or passages of the source.

System: Human lymphocytes
Assay: PHA-stimulated human lymphocyte proliferation (3H-thymidine incorporation)
Format: cell-based
Procedure: Immunosuppressive activity of the collected fractions was evaluated in an in vitro standard pharmacological test procedure designed to measure lymphocyte proliferation. The procedure used is briefly described below.
Human lymphocytes were isolated from blood anticoagulated with heparin. Blood was centrifuged with ficoll at 545 g at room temperature for 20 min. The lymphocyte layer was washed with phosphate buffered saline by centrifugation at 280 g for 10 min and subsequently with the culture medium (430 g, 10 min). The cells were adjusted to a concentration of 10^6 cells/mL with RPMI 1640 medium supplemented with 2 mM glutamine, 100 U/mL penicillin, 100 μg streptomycin and 10% fetal calf serum. For each fraction evaluated, the 1 g/L solution in methanol was diluted with culture medium to provide a concentration of 1 mg/L. The concentration of metabolite in each fraction was determined by HPLC comparison with an external rapamycin standard curve. A solution composed of 100 μL of the cell suspension, containing 5 mg/L PHA, and 100 μL of the metabolite solution were pipetted into the wells of a 96-well plate. The cells were incubated for 44 h at 37° C. in a 5% CO2 atmosphere. After addition of 1 μCi ^3 H-thymidine/well the cells were incubated for additional 4.5 h. […] The thawed cells were harvested and ^3 H-thymidine incorporation was determined by liquid scintillation counting.

CO[C@H]1C[C@@H]2CC[C@@H](C)[C@@](O)(O2)C(=O)C(=O)N2CCCC[C@H]2C(=O)O[C@H]([C@H](C)C[C@@H]2CC[C@@H](O)[C@H](OC)C2)CC(=O)[C@H](C)/C=C(\C)[C@@H](O)[C@@H](OC)C(=O)[C@H](C)C[C@H](C)/C=C/C=C/C=C/1C [Rapamycin, rapamycin]
IC50 (Homo sapiens, Lymphocyte): 0.1 nM

CO[C@H]1C[C@@H]2CC[C@@H](C)[C@@](O)(O2)C(=O)C(=O)N2CCCC[C@H]2C(=O)O[C@H]([C@H](C)C[C@@H]2CC[C@@H](O)[C@H](O)C2)CC(=O)[C@H](C)/C=C(\C)[C@@H](O)[C@@H](OC)C(=O)[C@H](C)C[C@H](C)/C=C/C=C/C=C/1C [Example 1, 41-O-Desmethyl rapamycin]
IC50 (lymphocyte proliferation, human lymphocytes from heparin blood, PHA, incubated 44 h at 37° C., then 3H-thymidine 4.5 h, read-out: IC50): 1 nM
